The source of these data is patent US20150190377A1, “NEURONAL REGENERATION” (The Regents of the University of California, a California …, priority 2014, published 2015).

The subject of assay [1] is genes from the M77 network in DRG neurons. Nature of the assay: qPCR of critical PPI network genes in DRG neurons treated with ambroxol. Format: cell-based. The conditions noted are these: DRG neurons treated with 60 mM ambroxol (4 days), P-value<0.05, includes ATF3, FOS, JUN, SMAD1, SP1. From the text: (§1) FIGS. 5A-5F. Targeting candidate RAG regulatory network using small-molecules. Gene expression signatures after PNS injury were used to query drug-related expression profiles in the Connectivity Map. Using a pattern-matching algorithm, we selected three drugs (ambroxol, disulfiram and lasalocid) based on enrichment and specificity scores. FIG. 5A: Protein-protein interaction (edges) network of co-expressed and differentially expressed genes (nodes) after PNS injury depicting up-regulation and down-regulation after SN lesion; up-regulation and down-regulation after ambroxol treatment (from Connectivity Map). FIG. 5B: Histogram depicting differences in DRG neurite outgrowth after treatment with drugs. […] FIG. 5C: Histogram depicting differential expression of mRNA for critical genes in PPI network validated by qPCR of DRG neurons treated with […] ambroxol (4 days). Legend (FIG. 5C, top to bottom): ATF3, CASP3, EGR1, FOS, JAK2, JUN, KLF4, MYC, PLAUR, RELA, SMAD1, SP1, STAT1 and STAT3: FIGS. 5D-5F: Ambroxol concentration response. […] FIG. 5E: Photomicrographs of DRG neurons in presence of vehicle (control) or 40 μM ambroxol, immunostained for βIII-tubulin. Images acquired using ImagExpressmicro. Scale bar, 50 μm. FIG. 5F: Histogram depicting concentration-response for neurite outgrowth per neuron vs. ambroxol concentration, mean±SEM for three independent experiments. […]
In general terms: Real-time PCR tracks product formation cycle by cycle.

Assay [2] concerns optic nerve / retinal ganglion cell axons. Put plainly: optic nerve regeneration after crush injury in C57BL/6 mice. Format: in vivo, mouse. The conditions noted are these: between 200-500 um, after 2 weeks, vs control animals, p-value less than 0.04. The method, then: FIGS. 6A-6E. Ambroxol promotes retinal ganglion cell axonal regeneration. FIG. 6A: Ambroxol (Amb-25 mg/ml) or vehicle (Veh) was injected into the eye just before optic nerve crush (ONC-Day 1). Animals received daily […] of ambroxol (25 mg/ml) or vehicle by intraperitoneal (IP) injection from day 1 to day 14. At day 7 ambroxol (25 mg/ml) or vehicle was injected into the eye. Tracer CTB was injected into the eye on day 11 and animals sacrificed on day 14. FIG. 6B: Representative retina whole mount images with Tuj1 antibody staining 2 weeks post injury and (FIG. 6C) histogram depicting quantification of retinal ganglion cell (RGCs) survival measured by Tuj1 antibody staining Scale bar: 25 um FIG. 6D: Representative confocal images of optic nerve sections from WT animal treated with vehicle (n=10) and WT animal treated with ambroxol (25 mg/ml, n=13). Axons are labeled with CTB. Scale bar: 100 um. Measurements were made blinded to treatment. FIG. 6F: Quantification of number of axons in FIG. 6D as function of distance from crush site. T-test ** p<0.001 * p<0.05.
Ambroxol was tested for the ability to enhance CNS regeneration in vivo after injury. The optic nerve regeneration effect in mice after crush injury was evaluated after treating with and without ambroxol. […] In summary, a FDA approved drug—ambroxol accelerates and improves neural repair in the CNS. […]

Assay [3] shares this test system. Nature of the assay: optic nerve crush in PTEN knockout mice treated with ambroxol. Format: in vivo, mouse. As to conditions: at 2500 um, after 2 weeks, vs control animals, p-value 0.02. The method, then: FIGS. 15A-15E. Ambroxol promotes retinal ganglion cell axonal regeneration in PTEN knockout mice. Ambroxol (Amb-25 mg/ml) or vehicle (Veh) was injected into the eye just before optic nerve crush. Animals received daily 300 mg/kg of ambroxol or vehicle by intraperitoneal (IP) injection for the first five days after the crush and then they received 150 mg/kg until day 14. At day 7 ambroxol (25 mg/ml) or vehicle was injected into the eye. Tracer CTB was injected into the eye on day 11 and animals sacrificed on day 14. FIG. 15A: Representative confocal images of optic nerve sections from PTEN^−/− animal treated with vehicle (n=4) and PTEN^−/− animal treated with ambroxol (n=4). Axons are labeled with CTB. Scale bar: 100 um. Measurements were made blinded to treatment. FIG. 15B: Quantification of number of axons in […]. T-test ** p<0.01 * p<0.05. FIG. 15C: Representative retina whole mount images with Tuj1 and P-S6 antibody staining 2 weeks post injury and FIGS. 15D-15E: Quantification of retinal ganglion cell (RGCs) survival measured by Tuj1 and P-S6 antibody staining Scale bar: 25 um.
Without wishing to be bound by any theory, since ambroxol recapitulates many of the core expression changes in the M280, we reasoned that it would promote CNS regeneration. […]

The target in assay [4] is T1, SOCS3 (Homo sapiens, UniProt O14543).
T1 construct: Western blot analysis of cultured human (293) cells; endogenous in cells; host or cells: human 293 cells
T1 sequence (O14543 1-225): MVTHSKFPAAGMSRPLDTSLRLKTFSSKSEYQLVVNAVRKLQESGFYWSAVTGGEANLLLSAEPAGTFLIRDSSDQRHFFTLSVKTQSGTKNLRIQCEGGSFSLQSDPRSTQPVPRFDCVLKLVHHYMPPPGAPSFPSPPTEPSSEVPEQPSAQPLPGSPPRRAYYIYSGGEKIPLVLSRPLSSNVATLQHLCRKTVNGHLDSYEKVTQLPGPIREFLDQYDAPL
Nature of the assay: Western blot of phosphorylated STAT3 (SOCS3 inhibition), human 293 cells. The conditions noted are these: increasing concentration. Format: cell-based. The method, then: (§2) Likewise, the inhibition of SOCS3 was tested following the phosphorylated form of STAT3.
(In general: Immunoblotting shows a protein as a band on a membrane.)

Assay [5] has as its target T2, SOCS3 (Mus musculus, UniProt O35718).
T2 construct: Western blot analysis of cultured mouse (N2A) cells; endogenous in cells; host or cells: mouse N2A cells
T2 sequence (O35718 1-225): T1 sequence (O14543 1-225) with A133T, P137S, S138L, S152P, P155A, P160T, R162K
Nature of the assay: Western blot of phosphorylated STAT3 (SOCS3 inhibition), mouse N2A cells. Format: cell-based. The conditions noted are these: increasing concentration. The method, then: as §2

Assay [6] deals with T3, SOCS3 (Rattus norvegicus, UniProt O88583).
T3 construct: Western blot analysis of cultured rat (PC12) cells; endogenous in cells; host or cells: rat PC12 cells
T3 sequence (O88583 1-225): T1 sequence (O14543 1-225) with K85E, P137S, S138L, S145F, P148Q, S152P, P155A, S159G, P160T, R162K
Put plainly: Western blot of phosphorylated STAT3 (SOCS3 inhibition), rat PC12 cells. Format: cell-based. As to conditions: increasing concentration. As for the experimental part:
as §2

In another assay the test system is DRG neurons. Put plainly: neurite outgrowth in DRG neurons after treatment with drugs. Format: cell-based. As to conditions: vs control; p<0.05, t-test; FIG. 5B.
Excerpt: as §1

Assay [7] concerns regeneration-associated marker genes. Put plainly: q-RT-PCR of regeneration-associated marker genes after treatment with candidate drugs. Format: cell-based, mouse. The conditions noted are these: N2A cell lines treated 48 hours, Gapdh internal control, FIG. 10. The method, then:
FIG. 10. Quantitative real-time RT-PCR after treatment of candidate drugs. N2A cell lines were treated with the corresponding drugs for 48 hours and the expression levels of the marker genes was measured by q-RT-PCR, using Gapdh as internal control. Nodes represents the genes tested, the edges represent the direction of regulation (i.e., up-regulation, downregulation) and the edge size represents the extent of fold change.
The gene expression signatures were used to identify FDA approved drugs (Lamb 2007) that may modulate the signaling pathways and gene expression necessary for regeneration. […] Based on the results obtained from the pattern matching algorithm present within the Connectivity Map database, the top three matching expression patterns were chosen based on the connectivity and specificity score, which represented the drugs (ambroxol, lasalocid, and disulfiram). The identified compounds were tested for their effect on gene expression levels of regeneration-associated marker genes and to examine the effect on neurite outgrowth in DRG neurons. […] Since the original pattern was derived from non-neuronal cell lines (30), we tested if ambroxol can change the gene-expression levels of these markers in DRG neurons. […] But, it had no previous relationship to regeneration.

The target in assay [8] is T4, PTEN (Homo sapiens, UniProt P60484).
T4 construct: Western blot analysis of cultured human (293), mouse (N2A) and rat (PC12) cells; endogenous in cells; host or cells: human 293 cells
T4 sequence (P60484 whole entry): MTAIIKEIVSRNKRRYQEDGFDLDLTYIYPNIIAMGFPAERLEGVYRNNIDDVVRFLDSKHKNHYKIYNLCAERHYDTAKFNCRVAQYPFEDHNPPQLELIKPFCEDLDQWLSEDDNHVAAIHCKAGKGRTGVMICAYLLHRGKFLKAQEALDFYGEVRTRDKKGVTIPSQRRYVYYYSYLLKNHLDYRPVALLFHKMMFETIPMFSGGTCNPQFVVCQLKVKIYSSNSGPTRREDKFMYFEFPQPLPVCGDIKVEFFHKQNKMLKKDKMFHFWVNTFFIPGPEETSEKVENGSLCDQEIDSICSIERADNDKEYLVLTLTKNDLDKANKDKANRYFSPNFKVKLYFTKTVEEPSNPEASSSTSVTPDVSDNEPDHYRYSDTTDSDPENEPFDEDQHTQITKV
Put plainly: Western blot of phosphorylated AKT (PTEN inhibition), human 293 cells. Format: cell-based. The conditions noted are these: increasing concentrations, pAKT (Ser473). The method, then: (§3) FIGS. 13A-13D. Western blot analysis of cultured human (293) (FIG. 13A), mouse (N2A) (FIG. 13B) and rat (PC12) (FIG. 13C) cells treated with Luteolin (P2) and Quercetin (P6). FIG. 13D: Protein levels of PTEN, AKT, pAKT (Ser473) and beta-Tubulin were measured.
(§4) The inhibition of PTEN was tested following the phosphorylated form of AKT.

Assay [9] addresses T5, PTEN (Mus musculus, UniProt O08586).
T5 construct: Western blot analysis of cultured human (293), mouse (N2A) and rat (PC12) cells; endogenous in cells; host or cells: mouse N2A cells
Nature of the assay: Western blot of phosphorylated AKT (PTEN inhibition), mouse N2A cells. Format: cell-based. The conditions noted are these: increasing concentrations, pAKT (Ser473). As for the experimental part:
as §3, §4

For assay [10], the target named is T6, PTEN (Rattus norvegicus, UniProt O54857).
T6 construct: Western blot analysis of cultured human (293), mouse (N2A) and rat (PC12) cells; endogenous in cells; host or cells: rat PC12 cells
T6 sequence (O54857 whole entry): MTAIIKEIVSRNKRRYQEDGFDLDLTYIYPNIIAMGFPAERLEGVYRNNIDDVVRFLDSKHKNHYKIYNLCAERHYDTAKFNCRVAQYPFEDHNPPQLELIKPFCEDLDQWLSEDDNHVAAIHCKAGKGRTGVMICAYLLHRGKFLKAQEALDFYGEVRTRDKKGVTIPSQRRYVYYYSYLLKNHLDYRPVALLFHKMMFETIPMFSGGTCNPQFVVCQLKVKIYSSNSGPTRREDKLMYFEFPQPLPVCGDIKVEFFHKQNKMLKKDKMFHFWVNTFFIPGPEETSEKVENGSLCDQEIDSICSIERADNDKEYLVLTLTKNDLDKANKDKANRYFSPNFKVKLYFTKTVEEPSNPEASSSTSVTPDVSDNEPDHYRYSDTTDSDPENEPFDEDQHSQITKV
Put plainly: Western blot of phosphorylated AKT (PTEN inhibition), rat PC12 cells. Format: cell-based. The conditions noted are these: increasing concentrations, pAKT (Ser473). As for the experimental part:
as §3, §4

Numbering of substitutions follows the chain as printed.

T5 sequence (O08586 whole entry): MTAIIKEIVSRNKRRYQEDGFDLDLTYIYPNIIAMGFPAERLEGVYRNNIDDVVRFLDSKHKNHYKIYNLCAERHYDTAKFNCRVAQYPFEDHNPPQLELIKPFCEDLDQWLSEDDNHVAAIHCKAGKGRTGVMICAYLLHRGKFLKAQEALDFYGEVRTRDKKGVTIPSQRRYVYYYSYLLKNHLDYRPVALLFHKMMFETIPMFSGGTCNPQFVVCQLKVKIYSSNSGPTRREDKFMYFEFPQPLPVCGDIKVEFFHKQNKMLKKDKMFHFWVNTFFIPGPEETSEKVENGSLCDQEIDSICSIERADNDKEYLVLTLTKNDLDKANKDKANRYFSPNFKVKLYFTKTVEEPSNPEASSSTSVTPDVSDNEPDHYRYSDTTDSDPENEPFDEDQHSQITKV

Regarding `Nc1c(Br)cc(Br)cc1CNC1CCC(O)CC1` (stereo not drawn) [ambroxol, trans-4-(2-Amino-3,5-dibrombenzylamino)-cyclohexanol], the “number of genes with significant differential expression among 14 randomly tested genes from the M77” value in assay [1] is 8 genes. Besides, the “increase in axon regeneration beyond the site of the lesion” value in [2] was over 1.5 fold. The “increase in regeneration beyond the site of the lesion” value in [3] was over 2.9 fold.
With `O=c1c(-c2ccc(O)cc2)coc2cc(O)cc(O)c12` [Genistein, genistein], the “expression level of phosphorylated form of STAT3 (denoting SOCS3 inhibition)” value at SOCS3 [4], on SOCS3 [5] and at SOCS3 [6] was “increased expression level of phosphorylated form of STAT3” in each case.
`Cc1ccc(N(CC2=NCCN2)c2cccc(O)c2)cc1` [Phentolamine, phentolamine]: the “expression level of phosphorylated form of STAT3 (denoting SOCS3 inhibition)” value on SOCS3 [4], on SOCS3 [5] and on SOCS3 [6] was “increased expression level of phosphorylated form of STAT3” each time.
`CC[C@@H](C(=O)[C@@H](C)[C@@H](O)[C@H](C)CCc1ccc(C)c(O)c1C(=O)O)[C@H]1O[C@](CC)([C@H]2CC[C@](O)(CC)[C@H](C)O2)C[C@@H]1C` [lasalocid]: the “DRG neurite outgrowth after treatment with drugs” value in the assay on DRG neurons is “only ambroxol showed significant enhancement”. Also, the “gene-expression levels of marker RAGs” value in assay [7] is reported as “significant changes”.
On to `O=c1c(O)c(-c2ccc(O)c(O)c2)oc2cc(O)cc(O)c12` [Quercetin, quercetin], for which the “expression level of phosphorylated form of AKT (denoting PTEN inhibition)” value on PTEN [8], on PTEN [9] and at PTEN [10] was “increased expression level of phosphorylated form of AKT” throughout.
Take `O=c1cc(-c2ccc(O)c(O)c2)oc2cc(O)cc(O)c12` [Luteolin, luteolin]: the “expression level of phosphorylated form of AKT (denoting PTEN inhibition)” value on PTEN [8], on PTEN [9] and on PTEN [10] was “increased expression level of phosphorylated form of AKT” throughout.
